Measurements as given in ChEMBL document CHEMBL1201862, “PubChem BioAssay data set” (2004).
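Interpolation was linear, between the two tested concentrations surrounding the appropriate level; five concentrations were tested over 48 hours in 96-well plates. GI50 marks 50% less growth.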 Calls of active or inactive are those of the source. Cut-off read from the data, not from the text of the source: active = GI50 up to about 1.1 µM and inactive = higher.

Tests used:
Assay in all cases: inhibition of tumour cell growth, NCI panel, 48 h
U-251 = system: U-251
UO-31 = system: UO-31
HCC 2998 = system: HCC 2998
SR = system: SR
SK-OV-3 = system: SK-OV-3
LOX IMVI = system: LOX IMVI
KM12 = system: KM12
UACC-62 = system: UACC-62
RXF 393 = system: RXF 393
HT-29 = system: HT-29
SK-MEL-2 = system: SK-MEL-2
SW-620 = system: SW-620
EKVX = system: EKVX
SK-MEL-28 = system: SK-MEL-28
HCT-15 = system: HCT-15
MOLT-4 = system: MOLT-4
HL-60 = system: HL-60
786-0 = system: 786-0
MDA-MB-231 = system: MDA-MB-231
MDA-MB-435 = system: MDA-MB-435

Compound: COc1ccc(CCN2CCC(C#N)(c3ccc(OC)c(OC)c3)CC2)cc1OC
- GI50 (U-251): > 100 µM (inactive)
- GI50 (UO-31): > 100 µM (inactive)
- GI50 (HCC 2998): > 100 µM (inactive)
- GI50 (SR): > 100 µM (inactive)
- GI50 (SK-OV-3): > 100 µM (inactive)
- GI50 (LOX IMVI): > 100 µM (inactive)
- GI50 (KM12): > 100 µM (inactive)
- GI50 (UACC-62): > 100 µM (inactive)
- GI50 (RXF 393): 49.1 µM (inactive)
- GI50 (HT-29): > 100 µM (inactive)
- GI50 (SK-MEL-2): > 100 µM (inactive)
- GI50 (SW-620): > 100 µM (inactive)
- GI50 (EKVX): > 100 µM (inactive)
- GI50 (SK-MEL-28): > 100 µM (inactive)
- GI50 (HCT-15): > 100 µM
- GI50 (MOLT-4): > 100 µM (inactive)
- GI50 (HL-60): > 100 µM (inactive)
- GI50 (786-0): > 100 µM (inactive)

Compound: COC1OC2COC(C)(C)OC2C2OC(C)(C)OC12 (stereo unspecified)
- GI50 (U-251): 24.5 µM (inactive)
- GI50 (UO-31): > 100 µM (inactive)
- GI50 (HCC 2998): > 100 µM (inactive)
- GI50 (SK-OV-3): 78.2 µM (inactive)
- GI50 (KM12): > 100 µM (inactive)
- GI50 (UACC-62): 45.1 µM (inactive)
- GI50 (RXF 393): 23.7 µM (inactive)
- GI50 (MDA-MB-231): 16 µM (inactive)
- GI50 (HT-29): 60.5 µM (inactive)
- GI50 (SK-MEL-2): > 100 µM (inactive)
- GI50 (SW-620): > 100 µM (inactive)
- GI50 (EKVX): 25.7 µM (inactive)
- GI50 (SK-MEL-28): > 100 µM (inactive)
- GI50 (MDA-MB-435): > 100 µM (inactive)
- GI50 (HCT-15): > 100 µM
- GI50 (MOLT-4): 25.3 µM (inactive)
- GI50 (786-0): 18.6 µM (inactive)

Compound: O=C(c1ccccc1)n1cc(-c2ccccc2)c2c(=O)nc[nH]c21
- GI50 (U-251): > 100 µM (inactive)
- GI50 (UO-31): > 100 µM (inactive)
- GI50 (HCC 2998): > 100 µM (inactive)
- GI50 (SK-OV-3): > 100 µM (inactive)
- GI50 (LOX IMVI): > 100 µM (inactive)
- GI50 (KM12): > 100 µM (inactive)
- GI50 (UACC-62): > 100 µM (inactive)
- GI50 (RXF 393): > 100 µM (inactive)
- GI50 (MDA-MB-231): > 100 µM (inactive)
- GI50 (HT-29): > 100 µM (inactive)
- GI50 (SK-MEL-2): > 100 µM (inactive)
- GI50 (SW-620): > 100 µM (inactive)
- GI50 (EKVX): > 100 µM (inactive)
- GI50 (SK-MEL-28): > 100 µM (inactive)
- GI50 (MDA-MB-435): > 100 µM (inactive)
- GI50 (HCT-15): > 100 µM
- GI50 (MOLT-4): > 100 µM (inactive)
- GI50 (786-0): > 100 µM (inactive)

Compound: CCOC(=O)N1CCN(c2c(N)nc(C)nc2O)CC1
- GI50 (U-251): > 100 µM (inactive)
- GI50 (UO-31): > 100 µM (inactive)
- GI50 (HCC 2998): > 100 µM (inactive)
- GI50 (SR): > 100 µM (inactive)
- GI50 (LOX IMVI): > 100 µM (inactive)
- GI50 (KM12): > 100 µM (inactive)
- GI50 (MDA-MB-231): > 100 µM (inactive)
- GI50 (HT-29): > 100 µM (inactive)
- GI50 (SK-MEL-2): > 100 µM (inactive)
- GI50 (SW-620): > 100 µM (inactive)
- GI50 (EKVX): > 100 µM (inactive)
- GI50 (SK-MEL-28): > 100 µM (inactive)
- GI50 (MDA-MB-435): > 100 µM (inactive)
- GI50 (HCT-15): > 100 µM
- GI50 (MOLT-4): > 100 µM (inactive)
- GI50 (HL-60): > 100 µM (inactive)
- GI50 (786-0): > 100 µM (inactive)

Compound: CC(NC(=O)C(Cc1ccc(OC(=O)c2ccccc2)cc1)NC(=O)OC(C)(C)C)C(=O)NCC(=O)NC(Cc1ccccc1)C(=O)NN (stereo unspecified)
- GI50 (U-251): 51.5 µM (inactive)
- GI50 (UO-31): > 100 µM (inactive)
- GI50 (SR): 13.6 µM (inactive)
- GI50 (SK-OV-3): > 100 µM (inactive)
- GI50 (LOX IMVI): 18.1 µM (inactive)
- GI50 (KM12): 80.7 µM (inactive)
- GI50 (UACC-62): 40.6 µM (inactive)
- GI50 (RXF 393): 34.8 µM (inactive)
- GI50 (MDA-MB-231): 37.9 µM (inactive)
- GI50 (HT-29): 31 µM (inactive)
- GI50 (SW-620): 29.3 µM (inactive)
- GI50 (EKVX): > 100 µM (inactive)
- GI50 (SK-MEL-28): 35.7 µM (inactive)
- GI50 (MDA-MB-435): 39 µM (inactive)
- GI50 (HCT-15): > 100 µM
- GI50 (MOLT-4): 17.9 µM (inactive)
- GI50 (HL-60): 16 µM (inactive)
- GI50 (786-0): > 100 µM (inactive)

Compound: COc1ccc(-c2nc(N)c3ncn(C4OC(CO)C(O)C4O)c3n2)cc1 (stereo unspecified)
- GI50 (U-251): > 100 µM (inactive)
- GI50 (SR): > 100 µM (inactive)
- GI50 (SK-OV-3): > 100 µM (inactive)
- GI50 (LOX IMVI): > 100 µM (inactive)
- GI50 (KM12): > 100 µM (inactive)
- GI50 (UACC-62): > 100 µM (inactive)
- GI50 (RXF 393): > 100 µM (inactive)
- GI50 (MDA-MB-231): > 100 µM (inactive)
- GI50 (HT-29): > 100 µM (inactive)
- GI50 (SK-MEL-2): > 100 µM (inactive)
- GI50 (SW-620): > 100 µM (inactive)
- GI50 (EKVX): > 100 µM (inactive)
- GI50 (SK-MEL-28): > 100 µM (inactive)
- GI50 (MDA-MB-435): > 100 µM (inactive)
- GI50 (HCT-15): > 100 µM
- GI50 (MOLT-4): 70.6 µM (inactive)
- GI50 (HL-60): > 100 µM (inactive)
- GI50 (786-0): > 100 µM (inactive)

Compound: NCCCNc1ccc2c3c(nn2CCNCCO)-c2c(O)ccc(O)c2C(=O)c13
- GI50 (SR): 0.253 µM (active)
- GI50 (SK-OV-3): 1.28 µM (inactive)
- GI50 (LOX IMVI): 0.927 µM (active)
- GI50 (KM12): 3.78 µM (inactive)
- GI50 (UACC-62): 0.883 µM (active)
- GI50 (MDA-MB-231): 3.84 µM (inactive)
- GI50 (HT-29): 3.68 µM (inactive)
- GI50 (SW-620): 1.15 µM (inactive)
- GI50 (MDA-MB-435): 9.71 µM (inactive)
- GI50 (HCT-15): 5.01 µM
- GI50 (MOLT-4): 0.21 µM (active)
- GI50 (786-0): 2.38 µM (inactive)

Compound: Cc1c(S(=O)(=O)N/C(=N\O)Nc2ccc(Cl)cc2)sc2ccc(Cl)cc12
- GI50 (U-251): 16.1 µM (inactive)
- GI50 (UO-31): 35.8 µM (inactive)
- GI50 (SK-OV-3): 15.6 µM (inactive)
- GI50 (LOX IMVI): 17 µM (inactive)
- GI50 (KM12): 18.4 µM (inactive)
- GI50 (UACC-62): 16.1 µM (inactive)
- GI50 (RXF 393): 22.3 µM (inactive)
- GI50 (MDA-MB-231): 20.1 µM (inactive)
- GI50 (HT-29): 19.3 µM (inactive)
- GI50 (SK-MEL-2): 18.7 µM (inactive)
- GI50 (SW-620): 25.1 µM (inactive)
- GI50 (EKVX): 12.3 µM (inactive)
- GI50 (SK-MEL-28): 16.4 µM (inactive)
- GI50 (MDA-MB-435): 16.3 µM (inactive)
- GI50 (HCT-15): 16.6 µM
- GI50 (MOLT-4): 27.2 µM (inactive)
- GI50 (HL-60): 19.3 µM (inactive)
- GI50 (786-0): 17.5 µM (inactive)
